Legend:
MLLT1 = molecular target: T1, MLLT1 (Homo sapiens, UniProt Q03111); experiment: MLLT1 degradation assay in MV4-11 cells (JESS chemiluminescent detection), three concentrations, 24 h; format: cell-based; settings: with respect to DMSO control
T1 construct: host or cells: MV4-11
T1 sequence (Q03111 1-559): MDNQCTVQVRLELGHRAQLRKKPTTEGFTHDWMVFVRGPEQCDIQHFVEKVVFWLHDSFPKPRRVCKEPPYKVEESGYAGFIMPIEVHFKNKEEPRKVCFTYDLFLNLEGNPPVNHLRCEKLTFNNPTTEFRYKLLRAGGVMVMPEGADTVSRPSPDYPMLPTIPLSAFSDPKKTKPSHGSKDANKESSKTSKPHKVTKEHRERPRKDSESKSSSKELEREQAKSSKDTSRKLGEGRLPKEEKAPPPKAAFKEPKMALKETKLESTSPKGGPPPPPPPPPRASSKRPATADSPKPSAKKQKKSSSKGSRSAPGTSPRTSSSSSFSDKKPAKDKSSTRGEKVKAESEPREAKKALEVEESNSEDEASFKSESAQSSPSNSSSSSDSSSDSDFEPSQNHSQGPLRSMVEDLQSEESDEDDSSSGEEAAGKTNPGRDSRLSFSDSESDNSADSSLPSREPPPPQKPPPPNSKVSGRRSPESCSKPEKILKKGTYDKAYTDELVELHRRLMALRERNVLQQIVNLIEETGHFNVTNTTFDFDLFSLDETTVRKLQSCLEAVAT
How it was run: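 Read-out is % MLLT1 degradation versus DMSO, from band peak areas on a JESS chemiluminescent system. Cells (MV4-11) were exposed for 24 h at 37° C to three compound levels, 10, 100 and 1000 nM, in 0.1% DMSO.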

MV4-11 cells = experiment: MV4-11 cellular proliferative assay, Assay Format B (CTG 2.0, 168 h); format: cell-based; settings: Homo sapiens, 168 h (7 days), CTG 2.0, read-out: IC50 (MV4-11 cellular proliferative assay, Assay format B)
How it was run: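 Viability read by CellTiter-Glo 2.0 luminescence after 7-day (168 h) compound exposure of MV4-11 cells in IMDM/10% FBS. Ten 3-fold concentrations starting at 1 uM or 100 nM, 0.3% final DMSO; curves normalised to DMSO control, four-parameter fit.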

MLLT1% Degradation @ 0.01 μM (MLLT1) | MLLT1% Degradation @ 0.1 μM (MLLT1) | MLLT1% Degradation @ 1 μM (MLLT1) | IC50 (MV4-11 cells) [nM] | SMILES
A (Category A: A ≥ 75% degradation) | A (Category A: A ≥ 75% degradation) | A (Category A: A ≥ 75% degradation) | ≤ 100 | CN1CCC[C@@H]1c1cc2cnc(NC(=O)c3cc(F)c(CCCCC#Cc4cccc5c4CN(C4CCC(=O)NC4=O)C5=O)c(F)c3)cc2[nH]1 (stereo partly drawn) [Example 156, 4-(6-(2-(2,6-dioxopiperidin-3-yl)-1-oxoisoindolin-4-yl)hex-5-yn-1-yl)-3,5-difluoro-N-(2-((R)-1-methylpyrrolidin-2-yl)-1H-pyrrolo[3,2-c]pyridin-6-yl)benzamide]
A (Category A: A ≥ 75% degradation) | A (Category A: A ≥ 75% degradation) | A (Category A: A ≥ 75% degradation) | ≤ 100 | CN1CCC[C@@H]1c1cc2cnc(NC(=O)c3ccc(OCCC4CCN(c5cccc6c5CN(C5CCC(=O)NC5=O)C6=O)CC4)nc3)cc2[nH]1 (stereo partly drawn) [Example 158, 6-(2-(1-(2-(2,6-dioxopiperidin-3-yl)-1-oxoisoindolin-4-yl)piperidin-4-yl)ethoxy)-N-(2-((R)-1-methylpyrrolidin-2-yl)-1H-pyrrolo[3,2-c]pyridin-6-yl)nicotinamide]
A (Category A: A ≥ 75% degradation) | A (Category A: A ≥ 75% degradation) | A (Category A: A ≥ 75% degradation) | ≤ 100 | CN1CCC[C@@H]1c1cc2cnc(NC(=O)c3ccc(OCC4CCN(c5cccc6c5CN(C5CCC(=O)NC5=O)C6=O)CC4)cc3)cc2[nH]1 (stereo partly drawn) [Example 159, 4-((1-(2-(2,6-dioxopiperidin-3-yl)-1-oxoisoindolin-4-yl)piperidin-4-yl)methoxy)-N-(2-((R)-1-methylpyrrolidin-2-yl)-1H-pyrrolo[3,2-c]pyridin-6-yl)benzamide]
A (Category A: A ≥ 75% degradation) | A (Category A: A ≥ 75% degradation) | A (Category A: A ≥ 75% degradation) | ≤ 100 | C[C@@H]1CN(CC2CCN(c3cccc4c3CN(C3CCC(=O)NC3=O)C4=O)CC2)CCN1c1ccc(C(=O)Nc2cc3[nH]c([C@H]4CCCN4C)cc3cn2)cn1 (stereo partly drawn) [Example 163, 6-((2R)-4-((1-(2-(2,6-dioxopiperidin-3-yl)-1-oxoisoindolin-4-yl)piperidin-4-yl)methyl)-2-methylpiperazin-1-yl)-N-(2-((R)-1-methylpyrrolidin-2-yl)-1H-pyrrolo[3,2-c]pyridin-6-yl)nicotinamide]
A (Category A: A ≥ 75% degradation) | A (Category A: A ≥ 75% degradation) | A (Category A: A ≥ 75% degradation) | ≤ 100 | CN1CCC[C@@H]1c1cc2cnc(NC(=O)c3ccc(OCCN4CCC5(CC4)CCN(c4ccc6c(c4)CN(C4CCC(=O)NC4=O)C6=O)CC5)cc3)cc2[nH]1 (stereo partly drawn) [Example 164, 4-(2-(9-(2-(2,6-dioxopiperidin-3-yl)-1-oxoisoindolin-5-yl)-3,9-diazaspiro[5.5]undecan-3-yl)ethoxy)-N-(2-((R)-1-methylpyrrolidin-2-yl)-1H-pyrrolo[3,2-c]pyridin-6-yl)benzamide]
A (Category A: A ≥ 75% degradation) | A (Category A: A ≥ 75% degradation) | A (Category A: A ≥ 75% degradation) | ≤ 100 | CN1CCC[C@@H]1c1cc2cnc(NC(=O)c3ccc(OCCN4CCC5(CC4)CCN(c4cccc6c4CN(C4CCC(=O)NC4=O)C6=O)CC5)cc3)cc2[nH]1 (stereo partly drawn) [Example 165, 4-(2-(9-(2-(2,6-dioxopiperidin-3-yl)-1-oxoisoindolin-4-yl)-3,9-diazaspiro[5.5]undecan-3-yl)ethoxy)-N-(2-((R)-1-methylpyrrolidin-2-yl)-1H-pyrrolo[3,2-c]pyridin-6-yl)benzamide]
A (Category A: A ≥ 75% degradation) | A (Category A: A ≥ 75% degradation) | A (Category A: A ≥ 75% degradation) | ≤ 100 | CN1CCC[C@@H]1c1cc2cnc(NC(=O)c3ccc(C4CCN(CC5CCN(c6cccc7c6CN(C6CCC(=O)NC6=O)C7=O)CC5)CC4)cc3)cc2[nH]1 (stereo partly drawn) [Example 167, 4-(1-((1-(2-(2,6-dioxopiperidin-3-yl)-1-oxoisoindolin-4-yl)piperidin-4-yl)methyl)piperidin-4-yl)-N-(2-((R)-1-methylpyrrolidin-2-yl)-1H-pyrrolo[3,2-c]pyridin-6-yl)benzamide]
A (Category A: A ≥ 75% degradation) | A (Category A: A ≥ 75% degradation) | A (Category A: A ≥ 75% degradation) | ≤ 100 | CN1CCC[C@@H]1c1cc2cnc(NC(=O)c3ccc(N4CCC(CN5CCN(c6cccc7c6CN(C6CCC(=O)NC6=O)C7=O)CC5)CC4)nc3)cc2[nH]1 (stereo partly drawn) [Example 168, 6-(4-((4-(2-(2,6-dioxopiperidin-3-yl)-1-oxoisoindolin-4-yl)piperazin-1-yl)methyl)piperidin-1-yl)-N-(2-((R)-1-methylpyrrolidin-2-yl)-1H-pyrrolo[3,2-c]pyridin-6-yl)nicotinamide]
A (Category A: A ≥ 75% degradation) | A (Category A: A ≥ 75% degradation) | A (Category A: A ≥ 75% degradation) | ≤ 100 | CN1CCC[C@@H]1c1cc2cnc(NC(=O)c3ccc(N4CCN(CC5CCN(c6ccc7c(c6)n(C)c(=O)n7C6CCC(=O)NC6=O)CC5)CC4)cc3)cc2[nH]1 (stereo partly drawn) [Example 170, 4-(4-((1-(1-(2,6-dioxopiperidin-3-yl)-3-methyl-2-oxo-2,3-dihydro-1H-benzo[d]imidazol-5-yl)piperidin-4-yl)methyl)piperazin-1-yl)-N-(2-((R)-1-methylpyrrolidin-2-yl)-1H-pyrrolo[3,2-c]pyridin-6-yl)benzamide]
A (Category A: A ≥ 75% degradation) | A (Category A: A ≥ 75% degradation) | A (Category A: A ≥ 75% degradation) | ≤ 100 | CN1CCC[C@@H]1c1cc2cnc(NC(=O)c3ccc(CCC4CCN(c5cccc6c5CN(C5CCC(=O)NC5=O)C6=O)CC4)cc3)cc2[nH]1 (stereo partly drawn) [Example 177, 4-(2-(1-(2-(2,6-dioxopiperidin-3-yl)-1-oxoisoindolin-4-yl)piperidin-4-yl)ethyl)-N-(2-((R)-1-methylpyrrolidin-2-yl)-1H-pyrrolo[3,2-c]pyridin-6-yl)benzamide]

SMILES | MLLT1% Degradation @ 0.01 μM (MLLT1) | MLLT1% Degradation @ 0.1 μM (MLLT1) | MLLT1% Degradation @ 1 μM (MLLT1) | IC50 (MV4-11 cells) [nM]
CN1CCC[C@@H]1c1cc2cnc(NC(=O)c3ccc(N4CCN(CC#Cc5cccc6c5CN(C5CCC(=O)NC5=O)C6=O)CC4)cc3F)cc2[nH]1 (stereo partly drawn) [Example 155, 4-(4-(3-(2-(2,6-dioxopiperidin-3-yl)-1-oxoisoindolin-4-yl)prop-2-yn-1-yl)piperazin-1-yl)-2-fluoro-N-(2-((R)-1-methylpyrrolidin-2-yl)-1H-pyrrolo[3,2-c]pyridin-6-yl)benzamide] | A (Category A: A ≥ 75% degradation) | A (Category A: A ≥ 75% degradation) | B (Category B: 50% ≤ B < 75% degradation) | ≤ 100
CN1CCC[C@@H]1c1cc2cnc(NC(=O)c3ccc(OC4CN(CC5CCN(c6ccc7c(c6)C(=O)N(C6CCC(=O)NC6=O)C7=O)CC5)C4)cc3)cc2[nH]1 (stereo partly drawn) [Example 157, 4-((1-((1-(2-(2,6-dioxopiperidin-3-yl)-1,3-dioxoisoindolin-5-yl)piperidin-4-yl)methyl)azetidin-3-yl)oxy)-N-(2-((R)-1-methylpyrrolidin-2-yl)-1H-pyrrolo[3,2-c]pyridin-6-yl)benzamide] | B (Category B: 50% ≤ B < 75% degradation) | A (Category A: A ≥ 75% degradation) | A (Category A: A ≥ 75% degradation) | ≤ 100
CN1CCC[C@@H]1c1cc2cnc(NC(=O)c3ccc(N4CCN(CC5CCN(c6cccc7c6CN(C6CCC(=O)NC6=O)C7=O)CC5)CC4)nc3)cc2[nH]1 (stereo partly drawn) [Example 169, 6-(4-((1-(2-(2,6-dioxopiperidin-3-yl)-1-oxoisoindolin-4-yl)piperidin-4-yl)methyl)piperazin-1-yl)-N-(2-((R)-1-methylpyrrolidin-2-yl)-1H-pyrrolo[3,2-c]pyridin-6-yl)nicotinamide] | B (Category B: 50% ≤ B < 75% degradation) | A (Category A: A ≥ 75% degradation) | A (Category A: A ≥ 75% degradation) | ≤ 100

Reference: patent US20260191968A1, “PROTAC DEGRADERS OF MLLT1 AND/OR MLLT3” (DARK BLUE THERAPEUTICS LTD, priority 2024, published 2026)
